Columns and labels:
cholera toxin = cholera toxin (Vibrio cholerae serotype O1, UniProt P01556); details: cited from earlier work
human placenta = assay: Placental transfer trial, dual perfused human placental lobules (Example 3); assay type: in vitro ADME
Source text: Dual perfused human lobules were taken from six placentae of uncomplicated term pregnancies (normal elective Caesarean patients). Maternal and fetal arterial and venous supplies were isolated, catheterised and the placenta maintained by perfusion of sterile krebs buffer (that also contains serum albumin to aid transport of lipophilic substances) at room temperature in a sterile air perfusion chamber at constant flow rate and pressure. The perfusion technique used was modified from Glance et al (1984) according to Collier et al (2004).
Equilibration was performed for 60 min to assess physical integrity of tissue and circuits (fetal arterial pressure <40 mmHg and leakage of perfusate from fetal to maternal circuit <2 ml/h) then the maternal and fetal reservoirs replaced with fresh media containing doses of test substances. Time zero and then hourly samples are collected from all circuits and stored frozen for analysis. Metabolic viability of the preparation is assessed with samples collected hourly from maternal and fetal arteries and analysed for oxygen and carbon dioxide saturation, electrolytes and glucose consumption (Bayer 865 Blood Gas Analyzer, Bayer Diagnostics and lactate production (Hitachi 917, Roche Diagnostics). 10 μg/mL of milk-derived ganglioside mixture (GM3+GD3—isolated from G600™ precursor described above) was added to the maternal reservoir. Perfusion was conducted for up to 3 hours using a closed loop system. Samples were taken from both reservoirs at that point (t=0) and at regular time-points, snap frozen in liquid nitrogen, and subsequently assayed for GM3, GD3, and lobule viability.
GM3 and GD3 contents of the perfusates were measured by LC-MS using a Hypersil APS2 column, normal phase acetonitrile gradient and detected in the LTQ orbitrap in negative ion full scan, as described below. Perfusate samples were “protein crashed” by addition into methanol, allowed to stand for 60 min at 4° C. before centrifugation (20,000×g). An aliquot (10-50 μL) was loaded onto an online C18 trap, washed (50% MeOH), before eluted onto a Hypersil APS2 column (Thermo Finnigan, MA, USA). Gangliosides were separated on a normal phase gradient, and detected in the LTQ Orbitrap Mass spectrometer (ThermoFinnigan, Ma, USA) in negative ion mode. The LC-MS system was calibrated using GD3 and GM3 standards purchased from Matreya (Pa, USA). Lobule viability was assessed by Glucose uptake and lactate production, measured with an Autoanalyzer.

neuronal out growth = details: cited from earlier work
[1] = rats (Hungund et al, 1993); cited from earlier work
[2] = 10 μg/mL GM3+GD3 mixture in maternal reservoir, perfusion up to 3 hours

Sequence of cholera toxin (P01556 22-124 limits assumed): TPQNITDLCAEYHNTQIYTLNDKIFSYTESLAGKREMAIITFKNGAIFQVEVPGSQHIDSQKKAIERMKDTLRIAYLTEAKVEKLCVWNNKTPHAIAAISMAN

In the case of GM2, the “binding of cholera toxin” value (cholera toxin) is listed as “negligible binding”.
With GM3 the “increase of foetal perfusate concentration over time” value (human placenta; [2]) was “approximately 6 fold”, the “transfer across the human placenta” value (human placenta; [2]) was “evidence of transfer” and the “reduction of maternal perfusate concentration” value (human placenta; on average, from the starting maternal concentration) was “half”. For the same substance, the “maternal perfusate concentration before reduction” value (human placenta; starting level in maternal perfusate) was “approximately 300 ng/ml”.
For ganglioside GM1, the “binding of cholera toxin” value (cholera toxin) is listed as “specific”.
In the case of GD3, the “concentrations in foetal perfusate” value (human placenta; LC-MS) is given as “below assay sensitivity”, the “reduction in maternal concentrations” value (human placenta; average, all cases) is given as 25-30% and the “effect on neuronal out growth” value (neuronal out growth) is given as “does not”.
For GD1a, the “binding of cholera toxin” value (cholera toxin) is listed as “negligible binding”.
In the case of Ganglioside GM1a, the “crossing of the placenta” value [1] is listed as “cross the placenta”.
In the case of 9-O-acetyl GD3 [reference compound], the “effect on neuronal out growth” value (neuronal out growth) is given as “promotes”.
